Tests used:
[1] = Pharmacokinetics in mice (plasma exposure after oral administration); format: in vivo; conditions: ICR mice, oral (i.g.) 3 mg/kg; for AUC(0-inf): mouse, read-out: After oral administration of 3 mg/kg, mouse plasma exposure AUCinf
Description: • LC-20AD high performance liquid chromatography (SHIMADZU, Japan) • API4000 triple quadrupole mass spectrometer (Applied Biosystem, USA) • Phenix Winnolin Pharmacokinetic software (Version 6.3, Certara, USA) • High speed freezing centrifuge (Thermo Fisher Scientific) • Analytical balance (Sartorius, SECURA225D-ICN) • ICR mice (Chengdu Dossy Experimental Animals CO., LTD.)
A suitable amount of drug was accurately weighed, and then the medium (5% DMSO, 15% HS-15, 80% DSW) was added to prepare the solution at a concentration of 0.1 mg/ml (i.v.) and 0.3 mg/ml (i.g.).
18 healthy adult ICR mice were divided into two groups (9 mice for i.v. group; 9 mice for i.g. group), and administered by tail vein or by gavage after fasting overnight (free drinking water); using the satellite blood collection method, 3 animals were collected at each time point, and then 0.1 ml of blood obtained at different time points was anticoagulated with EDTA-K2, centrifuged at 4° C. for 5 min to separate the plasma, and stored at −80° C. for detection. The sampling time points after i.v. administration were 5 min, 15 min, 0.5 h, 1 h, 2 h, 4 h, 8 h, 12 h, and 24 h; while the sampling time points for i.g. group were before administration (0 h) as well as 0.5 h, 1 h, 2 h, 4 h, 6 h, 8 h, 12 h, and 24 h after administration. Then, the drug concentration in plasma was determined by LC/MS/MS.

[2] = molecular target: T1, androgen receptor (AR) splicing variant AR-v7 (Homo sapiens, UniProt P10275); assay: Degradation activity on androgen receptor splicing variant AR-v7 in 22RV1 cells (ELISA); format: cell-based; conditions: AR-v7 degradation in 22RV1 cells, 48 h
T1 construct: The degradation activity of compounds on AR-v7 in 22RV1 cells; host or cells: 22RV1 cells
T1 sequence (P10275 1-644 isoform P10275-3): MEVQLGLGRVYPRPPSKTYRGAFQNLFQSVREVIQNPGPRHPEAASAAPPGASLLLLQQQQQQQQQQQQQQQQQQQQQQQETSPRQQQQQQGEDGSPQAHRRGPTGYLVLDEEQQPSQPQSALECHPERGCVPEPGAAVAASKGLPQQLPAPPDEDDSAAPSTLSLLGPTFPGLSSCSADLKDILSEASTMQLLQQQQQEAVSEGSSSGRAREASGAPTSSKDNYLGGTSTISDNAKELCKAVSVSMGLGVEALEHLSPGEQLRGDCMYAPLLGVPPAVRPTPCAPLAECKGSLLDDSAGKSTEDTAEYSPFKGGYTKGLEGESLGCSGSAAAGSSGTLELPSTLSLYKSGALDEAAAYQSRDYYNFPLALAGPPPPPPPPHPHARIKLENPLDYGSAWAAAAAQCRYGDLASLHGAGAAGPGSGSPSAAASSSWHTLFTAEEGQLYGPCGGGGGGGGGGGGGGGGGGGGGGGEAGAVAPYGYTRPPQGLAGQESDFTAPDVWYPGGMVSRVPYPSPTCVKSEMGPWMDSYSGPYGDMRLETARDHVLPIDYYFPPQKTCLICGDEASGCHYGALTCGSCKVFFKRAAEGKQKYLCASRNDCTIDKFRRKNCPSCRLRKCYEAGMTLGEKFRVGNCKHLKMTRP

22RV1 cells = conditions: Homo sapiens, 22Rv1, 144 h, read-out: 22RV1 IC50 (nM), 22RV1 cells, 6 days culture, CCK-8, OD 450 nm
Description: • 22RV1 cell lines (Cobioer, CBP6034) • Penicillin-Streptomycin (Hyclone, Cat. No. SV30010) • Cell counting kit-8 (Signalway Antibody, Cat. No. CP002)
Then, two wells were set for each concentration. 20 μL of the diluted compound solution was added to the cell culture well, and then the plate was gently shaken to mix. In addition, the experiment included 3 negative control wells only containing cells and 3 blank control wells only containing culture medium.

| AUC(0-inf) [1] | DC50 ([2]; class symbols) | After oral administration of 3 mg/kg, mouse plasma exposure AUCinf (μg*h/mL) [1] | IC50 (22RV1 cells) | DC50 ([2]; numeric values) | SMILES |
| --- | --- | --- | --- | --- | --- |
| 5000 to 30000 ng·h/mL | 11 to 100 nM | – | – | – | Cc1nsc(Oc2ccc(C(C)(C)c3ccc(O[C@H]4C[C@H](Nc5ccc6c(c5)C(=O)N(C5CCC(=O)NC5=O)C6=O)C4)cc3)cc2)n1 (stereo partly drawn) [Example 591, 2-(2,6-dioxopiperidin-3-yl)-5-((1r,3r)-3-(4-(2-(4-((3-methyl-1,2,4-thiadiazol-5-yl)oxy)phenyl)propan-2-yl)phenoxy)cyclobutyl)aminoisoindolin-1,3-dione] |
| 5000 to 30000 ng·h/mL | 11 to 100 nM | – | – | – | Cc1nc(-c2cncc(Oc3ccc(C(C)(C)c4ccc(O[C@H]5C[C@@H](Nc6ccc7c(c6)C(=O)N(C6CCC(=O)NC6=O)C7=O)C5)cc4)cc3)n2)no1 (stereo partly drawn) [Example 599] |
| 100 to 1000 ng·h/mL | 11 to 100 nM | – | – | – | CC(C)(c1ccc(OCc2ccnc(-n3cc(F)cn3)n2)cc1)c1ccc(O[C@H]2C[C@@H](Nc3ccc4c(c3)C(=O)N(C3CCC(=O)NC3=O)C4=O)C2)cc1 (stereo partly drawn) [Example 460] |
| 5000 to 30000 ng·h/mL | 11 to 100 nM | – | – | – | O=C1CCC(N2C(=O)c3ccc(N[C@H]4C[C@H](Oc5ccc(Cc6ccc(Oc7cnc(-n8ccnn8)nc7)cc6)cc5)C4)cc3C2=O)C(=O)N1 (stereo partly drawn) [Example 521] |
| 5000 to 30000 ng·h/mL | 11 to 100 nM | – | – | – | O=C1CCC(N2C(=O)c3ccc(N[C@H]4C[C@H](Oc5ccc(Oc6ccc(Oc7ncc(-n8nccn8)cn7)cc6)cc5)C4)cc3C2=O)C(=O)N1 (stereo partly drawn) [Example 122, 5-(((trans)-3-(4-(4-((5-(2H-1,2,3-triazol-2-yl)pyrimidin-2-yl)oxy)phenoxy)phenoxy)cyclobutyl)amino)-2-(2,6-dioxopiperidin-3-yl)isoindolin-1,3-dione] |
| 100 to 1000 ng·h/mL | 11 to 100 nM | – | – | – | CC(C)(c1ccc(OCc2ccnc(O[C@@H]3CCNC3)n2)cc1)c1ccc(O[C@H]2C[C@@H](Nc3ccc4c(c3)C(=O)N(C3CCC(=O)NC3=O)C4=O)C2)cc1 (stereo partly drawn) [Example 242] |
| – | – | A (30-5 μg*h/mL) | 3 nM | – | CC(O)c1ncc(Oc2ccc(C(C)(C)c3ccc(O[C@H]4C[C@H](Nc5ccc6c(c5)C(=O)N(C5CCC(=O)NC5=O)C6=O)C4)cc3)cc2)cn1 (stereo partly drawn) [Example 118] |
| 5000 to 30000 ng·h/mL | 11 to 100 nM | – | – | – | C=CC(c1ccc(Oc2ncc(-n3nccn3)cn2)cc1)c1ccc(O[C@H]2C[C@H](Nc3ccc4c(c3)C(=O)N(C3CCC(=O)NC3=O)C4=O)C2)cc1 (stereo partly drawn) [Example 370, 5-(((1r,3r)-3-(4-(1-(4-((5-(2H-1,2,3-triazole-2-yl)pyrimidin-2-yl)oxy)phenyl)allyl)phenoxy)cyclobutyl)amino)-2-(2,6-dioxopiperidin-3-yl)isoindolin-1,3-dione] |
| 5000 to 30000 ng·h/mL | – | – | – | > 10000 nM | CC(=O)c1nccc(COc2ccc(C(C)(C)c3ccc(OC4CN(c5ccc6c(c5)C(=O)N(C5CCC(=O)NC5=O)C6=O)C4)cc3)cc2)n1 (stereo not drawn) [Example 558] |
| 5000 to 30000 ng·h/mL | < 10 nM | – | – | – | Cc1nnc(-c2ccc(Oc3ccc(C(C)(C)c4ccc(O[C@H]5C[C@H](Nc6ccc7c(c6)C(=O)N(C6CCC(=O)NC6=O)C7=O)C5)cc4)cc3)cc2)o1 (stereo partly drawn) [Example 322, 2-(2,6-dioxopiperidin-3-yl)-5-((1r,3r)-3-(4-(2-(4-(4-(5-methyl-1,3,4-oxadiazol-2-yl)phenoxy)phenyl)propan-2-yl)phenoxy)cyclobutyl)aminoisoindolin-1,3-dione] |
| 5000 to 30000 ng·h/mL | 11 to 100 nM | – | – | – | Cc1nnc(-c2ccc(Oc3ccc(C(C)(C)c4ccc(O[C@H]5C[C@H](Nc6ccc7c(c6)C(=O)N(C6CCC(=O)NC6=O)C7=O)C5)cc4)cc3)nn2)o1 (stereo partly drawn) [Example 330] |
| 5000 to 30000 ng·h/mL | 11 to 100 nM | – | – | – | Cc1nnc(-c2cnc(Oc3ccc(C(C)(C)c4ccc(O[C@H]5C[C@H](Nc6ccc7c(c6)C(=O)N(C6CCC(=O)NC6=O)C7=O)C5)cc4)cc3)nc2)o1 (stereo partly drawn) [Example 475, 2-(2,6-dioxopiperidin-3-yl)-5-(((1r,3r)-3-(4-(2-(4-((5-(5-methyl-1,3,4oxadiazol-2-yl)pyrimidin-2-yl)oxy)phenyl)propan-2-yl)phenoxy)cyclobutyl)amino)isoindolin-1,3-dione] |
| 5000 to 30000 ng·h/mL | 11 to 100 nM | – | – | – | CC(C)(c1ccc(OCc2cccc(-n3ccnn3)n2)cc1)c1ccc(O[C@H]2C[C@H](Nc3ccc4c(c3)C(=O)N(C3CCC(=O)NC3=O)C4=O)C2)cc1 (stereo partly drawn) [Example 415] |
| 5000 to 30000 ng·h/mL | – | – | – | > 2000 nM | CC(C)(c1ccc(O)cc1)c1ccc(OCCCCCCCCOCCCCNc2ccc3c(c2)C(=O)N(C2CCC(=O)NC2=O)C3=O)cc1 (stereo not drawn) [Example 438, 2-(2,6-dioxopiperidin-3-yl)-5-((4-((8-(4-(2-(4-hydroxylphenyl)propan-2-yl)phenoxy)octyl)oxy)butyl)amino)isoindolin-1,3-dione] |
| 5000 to 30000 ng·h/mL | 11 to 100 nM | – | – | – | CC(C)(c1ccc(Oc2ccnc(-n3nccn3)c2)cc1)c1ccc(O[C@H]2C[C@H](Nc3ccc4c(c3)C(=O)N(C3CCC(=O)NC3=O)C4=O)C2)cc1 (stereo partly drawn) [Example 164] |
| 1000 to 5000 ng·h/mL | 11 to 100 nM | – | – | – | Cc1noc(-c2cccc(COc3ccc(C(C)(C)c4ccc(O[C@H]5C[C@H](Nc6ccc7c(c6)C(=O)N(C6CCC(=O)NC6=O)C7=O)C5)cc4)cc3)n2)n1 (stereo partly drawn) [Example 282] |
| 5000 to 30000 ng·h/mL | 11 to 100 nM | – | – | – | Cc1nnc(-c2nnc(Oc3ccc(C(C)(C)c4ccc(O[C@H]5C[C@H](Nc6ccc7c(c6)C(=O)N(C6CCC(=O)NC6=O)C7=O)C5)cc4)cc3)s2)o1 (stereo partly drawn) [Example 593] |
| 1000 to 5000 ng·h/mL | 11 to 100 nM | – | – | – | Cc1noc(-c2ccc(Oc3ccc(C(C)(C)c4ccc(O[C@H]5C[C@H](Nc6ccc7c(c6)C(=O)N(C6CCC(=O)NC6=O)C7=O)C5)cc4)cc3)cn2)n1 (stereo partly drawn) [Example 582] |
| 5000 to 30000 ng·h/mL | 11 to 100 nM | – | – | – | Cc1nnc(-c2ccnc(Oc3ccc(C(C)(C)c4ccc(O[C@H]5C[C@H](Nc6ccc7c(c6)C(=O)N(C6CCC(=O)NC6=O)C7=O)C5)cc4)cc3)n2)o1 (stereo partly drawn) [Example 171] |
| 100 to 1000 ng·h/mL | 11 to 100 nM | – | – | – | CC(C)(c1ccc(OCc2ccnc(N3CC4(CNC4)C3)n2)cc1)c1ccc(O[C@H]2C[C@H](Nc3ccc4c(c3)C(=O)N(C3CCC(=O)NC3=O)C4=O)C2)cc1 (stereo partly drawn) [Example 82, 5-(((1r,3r)-3-(4-(2-(4-((2-(2,6-diazaspiro[3.3]heptan-2-yl)pyrimidin-4-yl)methoxy)phenyl)propan-2-yl)phenoxy)cyclobutyl)amino)-2-(2,6-dioxopiperidin-3-yl)isoindolin-1,3-dione] |

| SMILES | AUC(0-inf) [1] | DC50 ([2]; class symbols) | After oral administration of 3 mg/kg, mouse plasma exposure AUCinf (μg*h/mL) [1] | IC50 (22RV1 cells) | DC50 ([2]; numeric values) |
| --- | --- | --- | --- | --- | --- |
| CC(C)(c1ccc(OCc2ccnc(N3CC4(COC4)C3)n2)cc1)c1ccc(C(=O)NCCNc2ccc3c(c2)C(=O)N(C2CCC(=O)NC2=O)C3=O)cc1 (stereo not drawn) [Example 501] | 1000 to 5000 ng·h/mL | 11 to 100 nM | – | – | – |
| CC(C)(c1ccc(OCc2ccnc(N3CC4(COC4)C3)n2)cc1)c1ccc(O[C@H]2C[C@@H](Nc3cc4c(cc3F)C(=O)N(C3CCC(=O)NC3=O)C4=O)C2)cc1 (stereo partly drawn) [Example 90, 5-(((1s,3s)-3-(4-(2-(4-((2-(2-oxa-6-azaspiro[3.3]heptane-6-yl)pyrimidin-4-yl)methoxy)phenyl)propan-2-yl)phenoxy)cyclobutyl)amino)-2-(2,6-dioxopiperidin-3-yl)-6-fluoroisoindolin-1,3-dione] | 1000 to 5000 ng·h/mL | 11 to 100 nM | – | – | – |
| CC(C)(c1ccc(OCc2ccnc(N3CC4(COC4)C3)n2)cc1)c1ccc(OC2CN(Cc3ccc4c(c3)C(=O)N(C3CCC(=O)NC3=O)C4=O)C2)cc1 (stereo not drawn) [Example 148] | 1000 to 5000 ng·h/mL | 101 to 1000 nM | – | – | – |
| CC(C)(c1ccc(OCc2ccnc(N3CC4(COC4)C3)n2)cc1)c1ccc(C(=O)Nc2ccc3c(c2)C(=O)N(C2CCC(=O)NC2=O)C3=O)cc1 (stereo not drawn) [Example 504, 4-(2-(4-((2-(2-oxa-6-azaspiro[3.3]heptan-6-yl)pyrimidin-4-yl)methoxy)phenyl)propan-2-yl)-N-(2-(2,6-dioxopiperidin-3-yl)-1,3-dioxoisoindolin-5-yl)benzamide] | 100 to 1000 ng·h/mL | 101 to 1000 nM | – | – | – |

Source: patent publication US20250051347A1, “BIFUNCTIONAL CHIMERIC HETEROCYCLIC COMPOUND AND USE THEREOF AS ANDROGEN RECEPTOR DEGRADER” (Hinova Pharmaceuticals, Inc., priority 2021, published 2025)
